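Where inhibition never reached the appropriate level, the endpoint shown equals the highest concentration tested. Otherwise, values were interpolated linearly from a five-concentration, 48-hour dose response in 96-well plates. The concentration for full growth arrest is given as TGI.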 Bounds are passed on as bounds.

Among the test systems are A549 NSCLC; M14 melanoma; COLO 205 colon; SK-OV-3 ovarian; SK-MEL-5 melanoma; UO-31 renal; CAKI-1 renal; NCI-H460 lung; SNB-19 CNS; HS 578T breast.
Test in all cases: inhibition of tumour cell growth, NCI panel, 48 h

Regarding `O=C1c2sccc2C(=O)c2c(CO)csc21`, the TGI was 6.7 µM with A549 NSCLC; 7.55 µM in the test on M14 melanoma; 12.2 µM in the test with COLO 205 colon; 28.2 µM in the test on SK-OV-3 ovarian; 2.2 µM with SK-MEL-5 melanoma; 26.2 µM in the test with UO-31 renal. In addition, the TGI in the test on CAKI-1 renal came out at 48.2 µM; with NCI-H460 lung, 6.96 µM; in the test with SNB-19 CNS, 20.8 µM; in the test on HS 578T breast, 33.7 µM.

Consider `CNC(=O)N(C)C(=O)c1ccccc1C(=O)N(C)C(=O)NC`, for which the TGI in the test on A549 NSCLC, with M14 melanoma, with COLO 205 colon, with SK-OV-3 ovarian, with SK-MEL-5 melanoma and with UO-31 renal was more than 10 µM each time. In addition, the TGI in the test with CAKI-1 renal, in the test on NCI-H460 lung, in the test with SNB-19 CNS and in the test with HS 578T breast was more than 10 µM each time.

On to `CCOC(=O)C1(NC(=O)OC(C)(C)C)CCc2[nH]oc(=O)c2C1` (stereo not given), for which the TGI in the test with A549 NSCLC, in the test with M14 melanoma, in the test on COLO 205 colon, in the test on SK-OV-3 ovarian, in the test with SK-MEL-5 melanoma and in the test on UO-31 renal was more than 100 µM each time. Besides, the TGI in the test on CAKI-1 renal, in the test with NCI-H460 lung, in the test on SNB-19 CNS and in the test on HS 578T breast was more than 100 µM in each case.

Take `CCOC(=O)c1sc2nc(SC)nc3c2c1NCN3c1ccccc1Cl`: the TGI with A549 NSCLC, in the test with M14 melanoma, in the test on COLO 205 colon, with SK-OV-3 ovarian, in the test on SK-MEL-5 melanoma and in the test on UO-31 renal was more than 100 µM each time. Besides, the TGI in the test with CAKI-1 renal was more than 100 µM; in the test with NCI-H460 lung, more than 100 µM; in the test on SNB-19 CNS, more than 100 µM; in the test on HS 578T breast, 73.3 µM.

With `O=P1(C(O)c2ccccc2)N(Cc2ccccc2)[C@@H]2CCCC[C@H]2N1Cc1ccccc1` (stereo not given in full), the TGI in the test on A549 NSCLC is more than 100 µM; in the test with M14 melanoma, 58.5 µM; with COLO 205 colon, 29.1 µM; with SK-OV-3 ovarian, more than 100 µM; with SK-MEL-5 melanoma it was more than 100 µM; in the test with UO-31 renal, more than 100 µM. The TGI was more than 100 µM in the test with CAKI-1 renal, more than 100 µM with NCI-H460 lung, more than 100 µM in the test on SNB-19 CNS and 45.5 µM with HS 578T breast.

For `CCc1nc2cc(F)ccc2[nH]c1=O`, the TGI in the test with A549 NSCLC, in the test on M14 melanoma, with COLO 205 colon, in the test with SK-OV-3 ovarian, in the test with SK-MEL-5 melanoma and with UO-31 renal was more than 100 µM in each case. Further, the TGI in the test on CAKI-1 renal, in the test on NCI-H460 lung, in the test on SNB-19 CNS and in the test with HS 578T breast was more than 100 µM throughout.

These data come from PubChem BioAssay (NCI).
